Results: ChEMBL document CHEMBL1201862, “PubChem BioAssay data set” (2004)
The source made the active and inactive calls.

Assays:
[1] = Counterscreen for AddAB inhibitors: absorbance-based bacterial cell-based high throughput dose response assay for inhibitors of bacterial viability. [Related pubchem assays (depositor defined):AID435030, AID449728, AID449731, AID488942, AID488955, AID488956]; assay type: functional
[2] = biological target: 26S proteasome non-ATPase regulatory subunit 14 (Homo sapiens, UniProt O00487); assay: inhibition of proteasome subunit RPN11 – biochemical, fluorescence polarization, uHTS hits, confirmation (AID 602368); assay type: functional
[3] = biological target: 72 kDa type IV collagenase (Homo sapiens, UniProt P08253); assay: Dose Response validation of uHTS RPN11 inhibitor hits using a MMP-2 Fluorescence assay.; assay type: functional
[4] = biological target: T1, Tyrosyl-DNA phosphodiesterase 2 (Homo sapiens, UniProt O95551); assay: potency against TDP2 phosphodiesterase activity – biochemical, epi absorbance, IC50, dose response (AID 743297)
T1 sequence (O95551 whole entry): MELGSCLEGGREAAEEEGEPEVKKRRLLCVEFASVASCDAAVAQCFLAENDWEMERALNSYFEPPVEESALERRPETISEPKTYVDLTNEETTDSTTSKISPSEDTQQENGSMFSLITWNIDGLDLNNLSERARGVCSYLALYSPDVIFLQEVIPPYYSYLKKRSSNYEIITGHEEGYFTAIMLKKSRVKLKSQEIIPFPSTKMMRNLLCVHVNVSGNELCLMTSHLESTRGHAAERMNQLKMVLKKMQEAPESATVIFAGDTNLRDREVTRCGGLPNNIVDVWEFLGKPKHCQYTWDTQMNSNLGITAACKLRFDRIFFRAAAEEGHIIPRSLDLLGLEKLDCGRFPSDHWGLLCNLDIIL

[5] = IC50 of Artemis nuclease activity blockers – biochemical, fluorescence intensity, dose response (AID 720701); assay type: functional;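 note: Artemis endonuclease enzyme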
[6] = biological target: T2, Apoptotic protease-activating factor 1 (Homo sapiens, UniProt O14727); assay type: functional
T2 sequence (O14727 whole entry): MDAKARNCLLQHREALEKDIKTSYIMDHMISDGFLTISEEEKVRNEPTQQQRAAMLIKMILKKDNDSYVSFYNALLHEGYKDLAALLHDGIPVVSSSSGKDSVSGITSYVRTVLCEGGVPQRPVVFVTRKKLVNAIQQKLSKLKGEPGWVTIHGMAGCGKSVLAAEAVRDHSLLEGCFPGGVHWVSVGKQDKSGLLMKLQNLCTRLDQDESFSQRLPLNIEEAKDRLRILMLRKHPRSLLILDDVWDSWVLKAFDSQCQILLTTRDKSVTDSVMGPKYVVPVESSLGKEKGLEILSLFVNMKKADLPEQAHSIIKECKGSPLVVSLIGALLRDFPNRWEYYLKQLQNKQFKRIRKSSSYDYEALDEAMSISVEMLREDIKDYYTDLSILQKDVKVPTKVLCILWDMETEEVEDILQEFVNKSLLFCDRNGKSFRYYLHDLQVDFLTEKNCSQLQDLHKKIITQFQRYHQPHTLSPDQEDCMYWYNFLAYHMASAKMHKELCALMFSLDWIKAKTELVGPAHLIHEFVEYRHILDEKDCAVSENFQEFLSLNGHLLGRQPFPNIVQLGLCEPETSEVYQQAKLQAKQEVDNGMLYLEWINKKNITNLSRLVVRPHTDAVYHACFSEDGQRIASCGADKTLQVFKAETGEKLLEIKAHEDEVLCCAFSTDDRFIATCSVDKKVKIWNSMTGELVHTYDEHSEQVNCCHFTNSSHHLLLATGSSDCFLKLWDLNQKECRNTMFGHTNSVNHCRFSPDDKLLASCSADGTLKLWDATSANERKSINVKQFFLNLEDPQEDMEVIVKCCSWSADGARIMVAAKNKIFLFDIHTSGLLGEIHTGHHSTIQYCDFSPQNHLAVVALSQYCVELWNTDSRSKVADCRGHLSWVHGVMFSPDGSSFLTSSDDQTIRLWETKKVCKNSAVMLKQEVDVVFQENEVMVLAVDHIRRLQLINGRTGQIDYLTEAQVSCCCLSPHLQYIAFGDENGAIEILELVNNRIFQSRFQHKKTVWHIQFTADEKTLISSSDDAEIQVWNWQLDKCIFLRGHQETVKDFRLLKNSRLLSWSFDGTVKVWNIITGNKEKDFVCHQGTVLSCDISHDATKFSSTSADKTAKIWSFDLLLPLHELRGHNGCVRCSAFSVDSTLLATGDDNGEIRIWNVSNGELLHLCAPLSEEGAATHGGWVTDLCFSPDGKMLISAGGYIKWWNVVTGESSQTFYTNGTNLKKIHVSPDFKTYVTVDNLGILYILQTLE

[7] = biological target: T3, Sentrin-specific protease 6 (Homo sapiens, UniProt Q9GZR1); assay type: functional;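 note: Luminescence-based dose-response confirmatory assay of SENP6 inhibition, following up an ultra-high-throughput screen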
T3 sequence (Q9GZR1 whole entry): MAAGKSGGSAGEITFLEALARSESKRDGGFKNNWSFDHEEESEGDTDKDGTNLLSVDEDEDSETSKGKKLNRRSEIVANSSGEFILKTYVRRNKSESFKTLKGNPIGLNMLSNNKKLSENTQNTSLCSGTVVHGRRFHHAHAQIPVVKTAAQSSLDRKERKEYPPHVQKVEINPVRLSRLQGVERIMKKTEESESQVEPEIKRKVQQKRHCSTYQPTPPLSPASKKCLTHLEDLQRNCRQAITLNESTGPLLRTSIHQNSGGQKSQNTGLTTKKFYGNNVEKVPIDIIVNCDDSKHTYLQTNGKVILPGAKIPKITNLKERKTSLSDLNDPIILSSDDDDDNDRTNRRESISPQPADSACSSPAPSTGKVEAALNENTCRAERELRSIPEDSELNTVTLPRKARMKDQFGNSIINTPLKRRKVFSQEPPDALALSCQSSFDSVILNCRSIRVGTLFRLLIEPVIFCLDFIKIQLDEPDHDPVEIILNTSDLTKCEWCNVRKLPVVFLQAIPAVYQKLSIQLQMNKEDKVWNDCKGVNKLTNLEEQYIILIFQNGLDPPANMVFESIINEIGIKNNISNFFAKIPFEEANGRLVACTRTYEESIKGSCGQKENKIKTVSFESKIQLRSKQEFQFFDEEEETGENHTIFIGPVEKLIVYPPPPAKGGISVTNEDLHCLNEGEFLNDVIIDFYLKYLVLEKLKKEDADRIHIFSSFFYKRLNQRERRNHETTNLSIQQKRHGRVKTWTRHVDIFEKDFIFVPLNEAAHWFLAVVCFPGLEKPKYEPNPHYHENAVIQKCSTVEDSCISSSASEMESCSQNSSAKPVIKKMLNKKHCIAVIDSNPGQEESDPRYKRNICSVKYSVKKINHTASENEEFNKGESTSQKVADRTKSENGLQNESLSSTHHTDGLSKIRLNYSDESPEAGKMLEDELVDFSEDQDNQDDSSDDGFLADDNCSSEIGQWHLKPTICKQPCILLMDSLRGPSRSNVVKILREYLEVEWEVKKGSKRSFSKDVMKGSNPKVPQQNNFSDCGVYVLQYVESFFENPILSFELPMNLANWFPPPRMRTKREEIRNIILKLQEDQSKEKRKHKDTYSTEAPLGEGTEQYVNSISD

26S proteasome non-ATPase regulatory subunit 14, sequence (O00487 whole entry): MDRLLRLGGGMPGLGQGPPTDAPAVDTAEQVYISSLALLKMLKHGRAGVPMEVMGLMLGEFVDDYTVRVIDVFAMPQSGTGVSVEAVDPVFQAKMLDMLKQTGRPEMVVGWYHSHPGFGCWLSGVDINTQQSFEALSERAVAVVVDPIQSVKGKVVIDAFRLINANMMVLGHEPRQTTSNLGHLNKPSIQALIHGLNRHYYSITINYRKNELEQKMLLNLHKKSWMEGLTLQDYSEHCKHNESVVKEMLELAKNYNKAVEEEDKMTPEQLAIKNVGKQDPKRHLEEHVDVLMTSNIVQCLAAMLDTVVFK
72 kDa type IV collagenase, sequence (P08253 whole entry): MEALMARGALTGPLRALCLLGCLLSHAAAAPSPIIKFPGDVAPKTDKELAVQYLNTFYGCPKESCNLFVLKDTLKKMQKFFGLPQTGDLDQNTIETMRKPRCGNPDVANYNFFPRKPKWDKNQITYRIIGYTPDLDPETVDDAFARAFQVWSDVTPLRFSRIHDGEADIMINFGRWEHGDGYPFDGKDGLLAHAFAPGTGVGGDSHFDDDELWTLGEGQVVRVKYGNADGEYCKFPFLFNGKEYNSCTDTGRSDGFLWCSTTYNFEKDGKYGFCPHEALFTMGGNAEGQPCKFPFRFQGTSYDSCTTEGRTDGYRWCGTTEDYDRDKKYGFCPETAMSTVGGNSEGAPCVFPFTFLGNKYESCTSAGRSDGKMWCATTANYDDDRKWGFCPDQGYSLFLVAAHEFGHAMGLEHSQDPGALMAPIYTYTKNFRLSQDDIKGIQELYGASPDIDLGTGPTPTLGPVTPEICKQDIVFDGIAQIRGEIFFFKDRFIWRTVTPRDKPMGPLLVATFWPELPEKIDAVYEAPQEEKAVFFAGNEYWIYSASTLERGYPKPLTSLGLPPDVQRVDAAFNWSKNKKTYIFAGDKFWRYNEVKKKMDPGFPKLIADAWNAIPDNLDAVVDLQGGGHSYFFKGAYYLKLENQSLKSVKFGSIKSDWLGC

Row | Compound | IC50 [1] | IC50 [2] | IC50 [3] | IC50 [4] | IC50 [5] | IC50 [6] | IC50 [7]
1 | O=[N+]([O-])c1ccc(N/N=C/c2ccc[nH]2)cc1 | > 119 µM (inactive) | 8.96 µM (active) | 70.3 µM (active) |  |  |  | 
2 | CC(=O)N(/N=C1\Sc2ccccc2C1=O)c1cccc(C)c1 |  |  |  | 6.48 µM (active) | 18.3 µM (active) | 4.46 µM (active) | 6.06 µM (active)
